Each structure is given as a SMILES string. Where a name gives a salt, the structure may show the parent alone. Read-outs that look alike come from different tables or passages of the source.

Common to all, as to test: AK assay 384-well format, Prestwick library screening
Assay [1] has as its system S. aureus strain USA300-0114. The class given is cell-based, Staphylococcus aureus. Particulars: 50 μM final drug concentration; for fold induction at 50 µM: Staphylococcus aureus, USA300, 3 h.
The subject of another assay is K. pneumoniae. The class given is cell-based, Klebsiella pneumoniae. Conditions: 50 μM final drug concentration; for fold induction at 50 µM: Klebsiella pneumoniae, 3 h.
Another assay deals with E. coli. In kind it is cell-based, Escherichia coli. Particulars: 50 μM final drug concentration; for fold induction at 50 µM: Escherichia coli, 3 h.
In assay [2] the test system is A. baumannii strain 98-37-09. In kind it is cell-based, Acinetobacter baumannii. Particulars: 50 μM final drug concentration; for fold induction at 50 µM: Acinetobacter baumannii, 983709, 3 h.
The next assay has as its system E. cloacae. The class given is cell-based, Enterobacter cloacae. Particulars: 50 μM final drug concentration; for fold induction at 50 µM: Enterobacter cloacae, 3 h.
The subject of a further assay is P. aeruginosa. In kind it is cell-based, Pseudomonas aeruginosa. Particulars: 50 μM final drug concentration; for fold induction at 50 µM: Pseudomonas aeruginosa, 3 h.
A further assay relates to E. faecium. In kind it is cell-based, Enterococcus faecium. Particulars: 50 μM final drug concentration; for fold induction at 50 µM: Enterococcus faecium, 3 h.
Where [3] appears, read: 384-well format, cutoff for positive-scoring molecules 3-fold increase, read-out: AK-based Prestwick Library Screening Results, S. aureus (increase in extracellular AK activity).
[4] abbreviates: 384-well format, cutoff for positive-scoring molecules 3-fold increase, read-out: AK-based Prestwick Library Screening Results, K. pneumoniae (increase in extracellular AK activity).
Setting [5] is: 384-well format, cutoff for positive-scoring molecules 3-fold increase, read-out: AK-based Prestwick Library Screening Results, E. coli (increase in extracellular AK activity).
Setting [6] is: 384-well format, cutoff for positive-scoring molecules 3-fold increase, read-out: AK-based Prestwick Library Screening Results, A. baumannii (increase in extracellular AK activity).
The mark [7] stands for this setting: 384-well format, cutoff for positive-scoring molecules 3-fold increase, read-out: AK-based Prestwick Library Screening Results, E. cloacae (increase in extracellular AK activity).
Setting [8] is: 384-well format, cutoff for positive-scoring molecules 3-fold increase, read-out: AK-based Prestwick Library Screening Results, P. aeruginosa (increase in extracellular AK activity).
[9] abbreviates: 384-well format, cutoff for positive-scoring molecules 3-fold increase, read-out: AK-based Prestwick Library Screening Results, E. faecium (increase in extracellular AK activity).
[10] abbreviates: planktonic, cutoff for positive 3-fold increase, read-out: AK-based Prestwick Library Screening Results, S. aureus (fold increase in extracellular AK activity).
Where [11] appears, read: planktonic, cutoff for positive 3-fold increase, read-out: AK-based Prestwick Library Screening Results, K. pneumoniae (fold increase in extracellular AK activity).
The mark [12] stands for this setting: planktonic, cutoff for positive 3-fold increase, read-out: AK-based Prestwick Library Screening Results, E. coli (fold increase in extracellular AK activity).
Setting [13] is: planktonic, cutoff for positive 3-fold increase, read-out: AK-based Prestwick Library Screening Results, A. baumannii (fold increase in extracellular AK activity).
The mark [14] stands for this setting: planktonic, cutoff for positive 3-fold increase, read-out: AK-based Prestwick Library Screening Results, E. cloacae (fold increase in extracellular AK activity).
[15] abbreviates: planktonic, cutoff for positive 3-fold increase, read-out: AK-based Prestwick Library Screening Results, P. aeruginosa (fold increase in extracellular AK activity).
[16] abbreviates: planktonic, cutoff for positive 3-fold increase, read-out: AK-based Prestwick Library Screening Results, E. faecium (fold increase in extracellular AK activity).

As to `O=C1CN(/N=C/c2ccc(-c3ccc([N+](=O)[O-])cc3)o2)C(O)=N1` [Dantrolene sodium salt], the fold induction at 50 µM is 1.1 in assay [1] (planktonic S. aureus, 384-well, cutoff for positive-scoring molecules 3-fold increase, read-out: AK-based Prestwick Library Screening Results: S. aureus (increase in extracellular AK activity)); 0.9 in the assay on K. pneumoniae (planktonic K. pneumoniae, 384-well, cutoff for positive-scoring molecules 3-fold increase, read-out: AK-based Prestwick Library Screening Results: K. pneumoniae (increase in extracellular AK activity)); 1 in the assay on E. coli (planktonic E. coli, 384-well, cutoff for positive-scoring molecules 3-fold increase, read-out: AK-based Prestwick Library Screening Results: E. coli (increase in extracellular AK activity)); 1.1 in assay [2] (planktonic A. baumannii, 384-well, cutoff for positive-scoring molecules 3-fold increase, read-out: AK-based Prestwick Library Screening Results: A. baumannii (increase in extracellular AK activity)); 1.5 in the assay on E. cloacae (planktonic E. cloacae, 384-well, cutoff for positive-scoring molecules 3-fold increase, read-out: AK-based Prestwick Library Screening Results: E. cloacae (increase in extracellular AK activity)); 1.2 in the assay with P. aeruginosa (planktonic P. aeruginosa, 384-well, cutoff for positive-scoring molecules 3-fold increase, read-out: AK-based Prestwick Library Screening Results: P. aeruginosa (increase in extracellular AK activity)). In the assay with E. faecium (planktonic E. faecium, 384-well, cutoff for positive-scoring molecules 3-fold increase, read-out: AK-based Prestwick Library Screening Results: E. faecium (increase in extracellular AK activity)), the fold induction at 50 µM turned out to be 1.
Consider `Nc1ccc(S(=O)(=O)c2ccc(N)cc2)cc1` [Dapsone], for which the fold induction at 50 µM in assay [1] (setting [3]) was 0.6; in the assay with K. pneumoniae (setting [4]), 0.7; in the assay with E. coli (setting [5]), 0.8; in assay [2] (setting [6]), 1.3; in the assay with E. cloacae (setting [7]) it was 1.1; in the assay on P. aeruginosa (setting [8]), 0.8. Moreover, the fold induction at 50 µM in the assay on E. faecium (setting [9]) turned out to be 0.9.
As for `COc1cccc2c1C(=O)c1c(O)c3c(c(O)c1C2=O)C[C@@](O)(C(C)=O)C[C@@H]3O[C@H]1C[C@H](N)[C@H](O)[C@H](C)O1` [Daunorubicin hydrochloride], the fold induction at 50 µM stood at 2.1 in assay [1] (planktonic S. aureus, […], read-out: AK-based Prestwick Library Screening Results, S. aureus (increase in extracellular AK activity)); 0.5 in the assay on K. pneumoniae (planktonic K. pneumoniae, […], read-out: AK-based Prestwick Library Screening Results, K. pneumoniae (increase in extracellular AK activity)); 0.9 in the assay on E. coli (planktonic E. coli, […], read-out: AK-based Prestwick Library Screening Results, E. coli (increase in extracellular AK activity)); 0.6 in assay [2] (planktonic A. baumannii, […], read-out: AK-based Prestwick Library Screening Results, A. baumannii (increase in extracellular AK activity)); 0.6 in the assay on E. cloacae (planktonic E. cloacae, […], read-out: AK-based Prestwick Library Screening Results, E. cloacae (increase in extracellular AK activity)); 0.5 in the assay on P. aeruginosa (planktonic P. aeruginosa, […], read-out: AK-based Prestwick Library Screening Results, P. aeruginosa (increase in extracellular AK activity)). Moreover, in the assay on E. faecium (planktonic E. faecium, […], read-out: AK-based Prestwick Library Screening Results, E. faecium (increase in extracellular AK activity)), the fold induction at 50 µM was 2.3.
As for `N=C(N)N1CCc2ccccc2C1` [Debrisoquin sulfate], the fold induction at 50 µM in assay [1] (setting [10]) worked out at 0.9; in the assay on K. pneumoniae (setting [11]), 0.8; in the assay on E. coli (setting [12]), 1.2; in assay [2] (setting [13]), 0.9; with E. cloacae (setting [14]), 1.7; in the assay on P. aeruginosa (setting [15]), 1. In the assay with E. faecium (setting [16]), the fold induction at 50 µM was 1.
On to `C[N+](C)(C)CCCCCCCCCC[N+](C)(C)C` [Decamethonium bromide], for which the fold induction at 50 µM in assay [1] (cutoff for positive-scoring molecules 3-fold increase, read-out: AK-based Prestwick Library Screening Results, S. aureus (fold increase in extracellular AK activity)) stood at 0.4; in the assay on K. pneumoniae (cutoff for positive-scoring molecules 3-fold increase, read-out: AK-based Prestwick Library Screening Results, K. pneumoniae (fold increase in extracellular AK activity)) it was 0.5; in the assay with E. coli (cutoff for positive-scoring molecules 3-fold increase, read-out: AK-based Prestwick Library Screening Results, E. coli (fold increase in extracellular AK activity)), 0.5; in assay [2] (cutoff for positive-scoring molecules 3-fold increase, read-out: AK-based Prestwick Library Screening Results, A. baumannii (fold increase in extracellular AK activity)), 0.5; with E. cloacae (cutoff for positive-scoring molecules 3-fold increase, read-out: AK-based Prestwick Library Screening Results, E. cloacae (fold increase in extracellular AK activity)), 0.5; in the assay with P. aeruginosa (cutoff for positive-scoring molecules 3-fold increase, read-out: AK-based Prestwick Library Screening Results, P. aeruginosa (fold increase in extracellular AK activity)), 0.4. Besides, in the assay with E. faecium (cutoff for positive-scoring molecules 3-fold increase, read-out: AK-based Prestwick Library Screening Results, E. faecium (fold increase in extracellular AK activity)), the fold induction at 50 µM was found to be 0.9.
In the case of `CC(=O)N(O)CCCCCNC(=O)CCC(=O)N(O)CCCCCNC(=O)CCC(=O)N(O)CCCCCN` [Deferoxamine mesylate], the fold induction at 50 µM in assay [1] (setting [10]) came to 0.4; in the assay with K. pneumoniae (setting [11]) it was 0.5; in the assay on E. coli (setting [12]), 0.4; in assay [2] (setting [13]), 0.4; in the assay with E. cloacae (setting [14]), 0.4; with P. aeruginosa (setting [15]) it was 0.4. The fold induction at 50 µM in the assay with E. faecium (setting [16]) turned out to be 0.9.
On to `C[C@H](CCC(=O)O)[C@H]1CC[C@H]2[C@@H]3C(=O)C[C@@H]4CC(=O)CC[C@]4(C)[C@H]3CC(=O)[C@]12C` [Dehydrocholic acid], for which the fold induction at 50 µM in assay [1] (setting [3]) worked out at 1; in the assay on K. pneumoniae (setting [4]), 0.8; in the assay with E. coli (setting [5]) it was 1.3; in assay [2] (setting [6]), 1; in the assay on E. cloacae (setting [7]) it was 1.4; in the assay with P. aeruginosa (setting [8]) it was 1. Moreover, the fold induction at 50 µM with E. faecium (setting [9]) was found to be 1.
Regarding `CC(=O)O[C@H]1CC[C@@]2(C)C(=CC[C@@H]3[C@@H]2CC[C@]2(C)C(=O)CC[C@@H]32)C1` [Dehydroisoandosterone 3-acetate], the “AK-based Prestwick Library Screening Results, S. aureus (fold increase in extracellular AK activity)” value in assay [1] ([…]) amounted to 0.8. Besides, the “AK-based Prestwick Library Screening Results, K. pneumoniae (fold increase in extracellular AK activity)” value in the assay on K. pneumoniae ([…]) turned out to be 0.9. Further, the “AK-based Prestwick Library Screening Results, E. coli (fold increase in extracellular AK activity)” value in the assay with E. coli ([…]) turned out to be 1.0. Also, the “AK-based Prestwick Library Screening Results, A. baumannii (fold increase in extracellular AK activity)” value in assay [2] ([…]) is 1.1. Moreover, the “AK-based Prestwick Library Screening Results, E. cloacae (fold increase in extracellular AK activity)” value in the assay with E. cloacae ([…]) worked out at 1.7. In the assay on P. aeruginosa ([…]), the “AK-based Prestwick Library Screening Results, P. aeruginosa (fold increase in extracellular AK activity)” value is listed as 1.1. Also, the “AK-based Prestwick Library Screening Results, E. faecium (fold increase in extracellular AK activity)” value in the assay with E. faecium ([…]) worked out at 1.1.

For the origin of these results see patent US10004701B2, “Methods and compositions for treating infection” (UNIVERSITY OF ROCHESTER, priority 2012, dated 2018).
